Assay results published in article PMC6379498, “Radiosynthesis and in vivo evaluation of ^11C-labeled BMS-193885 and its desmethyl analog as PET tracers for neuropeptide Y1 receptors” (EJNMMI Radiopharmacy and Chemistry, 2019).

What was measured:
NPY Y1-Rs = molecular target: T1, NPY Y1-Rs (Mus musculus, UniProt Q04573); test: Effect of pretreatment with 1 (BMS-193885) on tissue distribution of radioactivity; format: in vivo, mice; settings: 30 min post-injection, 1 10 mg/kg 20-30 min before tracer, vs control
T1 construct: in the lung, spleen, and kidney, which are rich in NPY Y1-Rs; from tissue; host or cells: organs of living mice (blood, heart, lung, spleen, kidney, liver, pancreas, muscle, brain etc.)
T1 sequence (Q04573 1-382): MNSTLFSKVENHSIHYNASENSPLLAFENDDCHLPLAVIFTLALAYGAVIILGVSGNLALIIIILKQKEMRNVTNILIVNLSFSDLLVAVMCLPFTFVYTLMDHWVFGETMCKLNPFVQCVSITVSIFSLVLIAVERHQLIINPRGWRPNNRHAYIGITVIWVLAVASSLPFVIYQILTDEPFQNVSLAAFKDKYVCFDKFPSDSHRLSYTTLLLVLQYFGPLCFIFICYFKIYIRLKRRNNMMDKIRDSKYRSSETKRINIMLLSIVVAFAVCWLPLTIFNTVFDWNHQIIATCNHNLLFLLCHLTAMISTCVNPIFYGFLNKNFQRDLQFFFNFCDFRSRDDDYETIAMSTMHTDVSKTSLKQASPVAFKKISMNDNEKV
Experimental: [^11C]1 (7.1–14 MBq/0.079–0.23 nmol) or [^11C]2 (6.0 MBq/0.16 nmol) was intravenously injected into mice (aged 7–8 weeks, weighing 32–36 g, n = 4–8) 20–30 min after the administration of the solution of 1 (10 mg/kg body weight [b.w.]/0.1 mL water containing 20% Tween 80), elacridar (5 mg/kg b.w./0.1 mL water), or a control fluid (0.1 mL water). Mice were euthanized by cervical dislocation at 30 min post-injection.
Blood samples were collected by heart puncture. Tissues were dissected and weighed. […] The tissue uptake of radioactivity was expressed as the percentage of injected dose detected per gram of sample (%ID/g, tissue radioactivity/g tissue/injected radioactivity × 100).

[1] = Metabolite analysis of mouse plasma after co-injection of [^11C]1 with 1; format: in vivo, mice; settings: 30 min after co-injection of [^11C]1 with 1 (50 mg/kg), radio- and UV-HPLC
Experimental: In addition, the effects of co-injection of [^11C]1 with 1 on the results of metabolite analyses of plasma were investigated. [^11C]1 (26-30 MBq/0.38-0.45 nmol) and a solution of 1 (50 mg/kg b.w. in water containing 20% Tween 80) were intravenously co-injected into mice (aged 7-9 weeks, weighing 35-39 g, n = 4). Mice were euthanized by cervical dislocation at 30 min post-injection. Blood samples taken by heart puncture were collected into heparinized syringes. The samples were centrifuged at 13,000×g (Model 5500, KUBOTA, Tokyo, Japan) for 3 min at 4 °C to obtain plasma (0.2 mL). Plasma samples were added to equivalent volumes of acetonitrile, and mixtures were centrifuged at 20,000×g for 2 min. The precipitate was added to 0.2 mL of acetonitrile, and this mixture was centrifuged at 20,000×g for 2 min to obtain the supernatant. The mixed supernatant was added to 0.2 mL of water, and this solution was loaded into the injector loop. HPLC analysis was performed using the abovementioned radio-HPLC system for metabolite analysis, and also a […] column (5 μm mesh, 10 mm i.d. × 150 mm length; YMC, Kyoto, Japan). Elution was performed using a mixture of 90% acetonitrile solution and 0.1 mol/L ammonium acetate solution (45:55, vol./vol.). The flow rate was 4 mL/min.

| SMILES | Change of radioactivity level in blood by pretreatment with 1 (NPY Y1-Rs) | Change of radioactivity level in brain by pretreatment with 1 (NPY Y1-Rs) | Change of radioactivity level in heart by pretreatment with 1 (NPY Y1-Rs) | Change of radioactivity level in kidney by pretreatment with 1 (NPY Y1-Rs) | Change of radioactivity level in lung by pretreatment with 1 (NPY Y1-Rs) | Change of radioactivity level in muscle by pretreatment with 1 (NPY Y1-Rs) | Change of radioactivity level in pancreas by pretreatment with 1 (NPY Y1-Rs) | Change of radioactivity level in spleen by pretreatment with 1 (NPY Y1-Rs) | Metabolites found in mouse plasma [1] |
| --- | --- | --- | --- | --- | --- | --- | --- | --- | --- |
| COC(=O)C1=C(C)NC(C)=C(C(=O)OC)C1c1cccc(NC(=O)NCCCN2CCC(c3cccc(O[11CH3])c3)CC2)c1 [[^11C]1] | not changed | not changed | not changed | significantly decreased | significantly decreased | not changed | not changed | significantly decreased | rapidly metabolized into its unlabeled desmethyl analog 2 and radiolabeled components |
| COC(=O)C1=C(C)NC(C)=C(C(=O)OC)C1c1cccc(N[11C](=O)NCCCN2CCC(c3cccc(O)c3)CC2)c1 [[^11C]2] | not changed | not changed | not changed | significantly decreased | significantly decreased | not changed | not changed | significantly decreased | – |
